Reference: publication PMC6750098, “Mechanism of DNA Lesion Homing and Recognition by the Uvr Nucleotide Excision Repair System” (Research, 2019)

Legend:
[1] = biological target: T1, UvrB (Δ594-658, domains 1a-3) ([Bacillus] caldotenax, UniProt P56981, C145S/C211S/T251C/C303S); assay: X-ray crystal structure (UvrB-dsDNA-ADP·Pi); details: crystals grown with 2 mM ATP and 5 mM MgCl2, pH 6.5, 20 °C; protein disulfide-crosslinked to 20-mer dsDNA; ATP binding site; 2.6 Å
T1 construct: residues 1-593 (domain 4 deleted, Δ594-658), all native Cys to Ser, His-tag cleaved with TEV protease, expressed in E. coli BL21(DE3) pLysS, disulfide-crosslinked to duplex DNA
T1 sequence (P56981 1-593 C145S/C211S/T251C/C303S): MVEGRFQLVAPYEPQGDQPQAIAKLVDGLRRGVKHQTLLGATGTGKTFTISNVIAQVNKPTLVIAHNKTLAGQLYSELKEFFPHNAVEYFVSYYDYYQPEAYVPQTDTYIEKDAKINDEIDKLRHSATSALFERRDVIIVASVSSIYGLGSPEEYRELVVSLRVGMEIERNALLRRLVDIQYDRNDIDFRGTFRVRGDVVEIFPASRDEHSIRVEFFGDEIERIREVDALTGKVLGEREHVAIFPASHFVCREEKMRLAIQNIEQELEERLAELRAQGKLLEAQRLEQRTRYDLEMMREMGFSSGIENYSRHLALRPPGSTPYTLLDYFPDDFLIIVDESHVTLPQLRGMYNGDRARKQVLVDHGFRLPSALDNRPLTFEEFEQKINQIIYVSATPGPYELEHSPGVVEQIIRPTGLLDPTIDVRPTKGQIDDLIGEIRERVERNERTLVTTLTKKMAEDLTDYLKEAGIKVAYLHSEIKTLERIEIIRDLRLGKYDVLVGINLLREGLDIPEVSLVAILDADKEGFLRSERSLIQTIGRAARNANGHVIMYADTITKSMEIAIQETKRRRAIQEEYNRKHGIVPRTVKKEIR

[2] = biological target: T1, UvrB (Δ594-658, domains 1a-3); assay: ATP hydrolysis in crystallo, seen in crystal structure; format: biochemical; details: 2 mM ATP, 5 mM MgCl2, pH 6.5, 20 °C; protein disulfide-crosslinked to 20-mer dsDNA

Nc1ncnc2c1ncn2[C@@H]1O[C@H](COP(=O)(O)OP(=O)(O)O)[C@@H](O)[C@H]1O [ADP]
X-ray crystal structure (UvrB-dsDNA-ADP.Pi) [1]: the electron density corresponds to ADP plus inorganic phosphate

Nc1ncnc2c1ncn2[C@@H]1O[C@H](COP(=O)(O)OP(=O)(O)OP(=O)(O)O)[C@@H](O)[C@H]1O [ATP]
ATP hydrolysis in crystallo, seen in crystal structure [2]: hence we conclude that the ATPase site retains activity in our crosslinked complex
